Results published in ChEMBL document CHEMBL1201862, “PubChem BioAssay data set” (2004).
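These data come from cells grown in 96-well plates and exposed to compound for 48 hours at five concentrations. Here, GI50 denotes the concentration required for 50% inhibition of growth.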 The source made the active and inactive calls. Rule as the data show it: active = GI50 up to about 1.1 µM and inactive = higher.

How the values were obtained:
Assay in all cases: NCI-60 cell line screen, 48 h
[1] = system: HOP-62
[2] = system: PC-3
[3] = system: SK-MEL-2
[4] = system: NCI/ADR-RES
[5] = system: DU-145
[6] = system: OVCAR-8
[7] = system: SF-539
[8] = system: A498
[9] = system: SF-268
[10] = system: UACC-62
[11] = system: NCI-H23
[12] = system: ACHN
[13] = system: OVCAR-5
[14] = system: Hs-578T
[15] = system: SK-MEL-5
[16] = system: HCC 2998
[17] = system: RXF 393
[18] = system: SW-620
[19] = system: LOX IMVI

SMILES | GI50 [1] | GI50 [2] | GI50 [3] | GI50 [4] | GI50 [5] | GI50 [6] | GI50 [7] | GI50 [8] | GI50 [9] | GI50 [10] | GI50 [11] | GI50 [12] | GI50 [13] | GI50 [14] | GI50 [15] | GI50 [16] | GI50 [17] | GI50 [18] | GI50 [19]
COC(=O)N1CC2(CO)C3CC=C(C(=O)Nc4ccccc4Br)C2C1C3Br (configuration not stated) | > 50 µM (inactive) | > 50 µM (inactive) | > 50 µM (inactive) | > 50 µM (inactive) | > 50 µM (inactive) | > 50 µM (inactive) | > 50 µM (inactive) | > 50 µM (inactive) | > 50 µM (inactive) | > 50 µM (inactive) | > 50 µM (inactive) | > 50 µM (inactive) | > 50 µM (inactive) | > 50 µM (inactive) | > 50 µM (inactive) | > 50 µM (inactive) | > 50 µM (inactive) | > 50 µM (inactive) | > 50 µM (inactive)
C=C1C(=O)OC2C1C(=O)C/C(C)=C/CCC1(C)OC21 (configuration not stated) | 14.2 µM (inactive) | 18.1 µM (inactive) | 18.5 µM (inactive) | 31 µM (inactive) | 17.4 µM (inactive) | 25.6 µM (inactive) | 15 µM (inactive) | 23.1 µM (inactive) | 19.6 µM (inactive) | 25.5 µM (inactive) | 19.5 µM (inactive) | 10.5 µM (inactive) | 17.7 µM (inactive) | 44.1 µM (inactive) | 19.3 µM (inactive) | 18.9 µM (inactive) | 15.4 µM (inactive) | 16.4 µM (inactive) | 2.47 µM (inactive)
CC(C)(C)SC1=CCC[C@@H](P(=O)(c2ccccc2)c2ccccc2)[C@@H]2CCC[C@@H]12 | 17 µM (inactive) | 14 µM (inactive) | 16.5 µM (inactive) | 17.2 µM (inactive) | 17.2 µM (inactive) | 18.3 µM (inactive) | 18.8 µM (inactive) | 15.8 µM (inactive) | 17.8 µM (inactive) | 12.4 µM (inactive) | 17.2 µM (inactive) | 16.5 µM (inactive) | 13.6 µM (inactive) | 20.7 µM (inactive) | 17.7 µM (inactive) | 16.2 µM (inactive) | 13.8 µM (inactive) | 27 µM (inactive) | 17.5 µM (inactive)
CC(C)/C(Cl)=N\OC(=O)Nc1cccc(F)c1 | > 31.6 µM (inactive) | 16.4 µM (inactive) | 7.76 µM (inactive) | 17.1 µM (inactive) | 18.4 µM (inactive) | 17 µM (inactive) | 18.6 µM (inactive) | 12.9 µM (inactive) | 19.6 µM (inactive) | 20.4 µM (inactive) | 15.9 µM (inactive) | 14.6 µM (inactive) | 17.7 µM (inactive) | 26.5 µM (inactive) | 15 µM (inactive) | 19.3 µM (inactive) | 17.1 µM (inactive) | 2.23 µM (inactive) | 2.14 µM (inactive)
CCOC(=O)C(Cc1c2ccccc2cc2ccccc12)(NC(C)=O)C(=O)OCC | > 56 µM (inactive) | 50 µM (inactive) | > 100 µM (inactive) | > 50.2 µM (inactive) | > 92.5 µM (inactive) | 67.6 µM (inactive) | > 64.6 µM (inactive) | 55.5 µM (inactive) | 36.9 µM (inactive) | – | > 100 µM (inactive) | > 63.1 µM (inactive) | > 100 µM (inactive) | 46.8 µM (inactive) | > 50.6 µM (inactive) | > 100 µM (inactive) | 42.7 µM (inactive) | > 79.8 µM (inactive) | > 100 µM (inactive)
C[C@@H]1C[C@H](O)[C@]2(O)O[C@@H]3C[C@@]4(C=O)[C@@H](CC=C5[C@@H]4CC[C@]4(C)[C@@H](C6=CC(=O)OC6)CC[C@]54O)C[C@H]3O[C@@H]2O1 | < 0.0121 µM (active) | 0.02 µM (active) | 0.098 µM (active) | < 0.0202 µM (active) | < 0.0163 µM (active) | < 0.0205 µM (active) | < 0.0166 µM (active) | < 0.01 µM (active) | 0.0103 µM (active) | 0.0449 µM (active) | 0.0118 µM (active) | < 0.01 µM (active) | 0.0951 µM (active) | < 0.01 µM (active) | < 0.0169 µM (active) | 0.0678 µM (active) | < 0.0196 µM (active) | < 0.0227 µM (active) | 0.0176 µM (active)
NC(Cc1n[nH]c2ccccc12)C(=O)O (configuration not stated) | > 100 µM (inactive) | > 100 µM (inactive) | 0.104 µM (active) | > 100 µM (inactive) | > 100 µM (inactive) | > 100 µM (inactive) | > 100 µM (inactive) | > 100 µM (inactive) | > 100 µM (inactive) | > 100 µM (inactive) | > 100 µM (inactive) | > 100 µM (inactive) | > 100 µM (inactive) | > 100 µM (inactive) | > 100 µM (inactive) | > 100 µM (inactive) | > 100 µM (inactive) | > 100 µM (inactive) | > 100 µM (inactive)
COC(=O)C1(Cc2cccc(C)c2)Cc2c(C)cccc2C1=O (configuration not stated) | 59.6 µM (inactive) | 27.2 µM (inactive) | 32.7 µM (inactive) | 24 µM (inactive) | > 100 µM (inactive) | 80.7 µM (inactive) | 38.4 µM (inactive) | 34 µM (inactive) | 58.5 µM (inactive) | 46.8 µM (inactive) | 37.5 µM (inactive) | > 100 µM (inactive) | > 100 µM (inactive) | 38.5 µM (inactive) | 38.5 µM (inactive) | 55.5 µM (inactive) | 29.4 µM (inactive) | 31.4 µM (inactive) | 50.1 µM (inactive)
O=c1cc(CN2CCCCC2)nc2ccc3c(O)cc(CN4CCCCC4)nc3n12 | > 100 µM (inactive) | > 100 µM (inactive) | > 100 µM (inactive) | > 100 µM (inactive) | > 100 µM (inactive) | > 100 µM (inactive) | > 100 µM (inactive) | > 100 µM (inactive) | > 100 µM (inactive) | > 100 µM (inactive) | > 100 µM (inactive) | > 100 µM (inactive) | > 100 µM (inactive) | > 100 µM (inactive) | > 100 µM (inactive) | > 100 µM (inactive) | > 100 µM (inactive) | > 100 µM (inactive) | > 100 µM (inactive)
C#C/C=C\CCCCCCCCCCCCCC/C=C\CCCCC#CC(O)C#CCCCC/C=C\CCCCCC/C=C/C(O)C#C (configuration not stated) | > 62.8 µM (inactive) | 19.1 µM (inactive) | 12.9 µM (inactive) | 31.5 µM (inactive) | 30.9 µM (inactive) | 23.3 µM (inactive) | 29.6 µM (inactive) | 30.1 µM (inactive) | 17.2 µM (inactive) | 11.8 µM (inactive) | 9.64 µM (inactive) | 20.8 µM (inactive) | 26.1 µM (inactive) | 42.5 µM (inactive) | 5.89 µM (inactive) | 13.1 µM (inactive) | 15.8 µM (inactive) | 7.5 µM (inactive) | 2.55 µM (inactive)
COC(OC)[C@@H]1OC[C@H](n2ccc(=O)[nH]c2=O)[C@H]1O | > 100 µM (inactive) | > 100 µM (inactive) | > 100 µM (inactive) | > 100 µM (inactive) | > 100 µM (inactive) | – | > 100 µM (inactive) | > 100 µM (inactive) | > 100 µM (inactive) | > 100 µM (inactive) | > 100 µM (inactive) | > 100 µM (inactive) | > 100 µM (inactive) | > 100 µM (inactive) | > 100 µM (inactive) | > 100 µM (inactive) | 66.4 µM (inactive) | > 100 µM (inactive) | > 100 µM (inactive)
COc1ccc(/[N+]([O-])=C/c2ccc(OC(=S)S)c(OC)c2)cc1 | 39.7 µM (inactive) | 42.4 µM (inactive) | 35.5 µM (inactive) | 22.7 µM (inactive) | 41.6 µM (inactive) | 38.5 µM (inactive) | 45.4 µM (inactive) | > 100 µM (inactive) | 42.5 µM (inactive) | 99.3 µM (inactive) | 29.6 µM (inactive) | 75 µM (inactive) | > 100 µM (inactive) | 34.4 µM (inactive) | 24.5 µM (inactive) | > 100 µM (inactive) | 19.6 µM (inactive) | 30.9 µM (inactive) | 38.5 µM (inactive)
CC(=O)O[C@H]1CCc2c(cc(N)c3c2C(=O)C[C@]2(C)C([C@H](C)CCCC(C)C)CCC32C)C1(C)C (some centres not stated) | > 100 µM (inactive) | 72.8 µM (inactive) | > 100 µM (inactive) | 42.4 µM (inactive) | > 100 µM (inactive) | 33.3 µM (inactive) | 71.9 µM (inactive) | 73.6 µM (inactive) | > 100 µM (inactive) | > 100 µM (inactive) | 60.5 µM (inactive) | > 100 µM (inactive) | > 100 µM (inactive) | 17.1 µM (inactive) | > 100 µM (inactive) | > 100 µM (inactive) | > 100 µM (inactive) | > 100 µM (inactive) | –
COc1cc2c(c(OC)c1OC)-c1ccc(SC)cc1[C@H](OC(=O)c1ccccc1)CC2 | – | 0.0673 µM (active) | > 100 µM (inactive) | 0.0946 µM (active) | 0.203 µM (active) | 0.158 µM (active) | 0.0369 µM (active) | 0.437 µM (active) | 0.214 µM (active) | 0.0753 µM (active) | 0.0935 µM (active) | 0.189 µM (active) | 0.622 µM (active) | 0.132 µM (active) | 0.0697 µM (active) | 0.32 µM (active) | 0.0334 µM (active) | 0.0313 µM (active) | 0.0743 µM (active)
